Experiments:
Assay type in all cases: cell-based
[1] = system: CD4+ T cells from draining lymph nodes restimulated with OVA; test: In vivo mouse Th17 differentiation (OVA/CFA) and in vitro restimulation; details: 1 μM, OVA restimulation
Description: The following antibodies (anti-mouse or anti-human) were purchased from BD Biosciences (San Diego, CA) or eBioscience (San Diego, CA): anti-CD3-FITC (mouse 17A2 and human SK7), anti-CD4-allophycocyanin (APC), anti-CD4-PerCp, anti-CD4-FITC, anti-CD4-PE (mouse GK1.5 and human SK3), anti-CD44-PerCp (mouse IM7), anti-γδ TCR-FITC, anti-γδ TCR-PE (mouse GL3 and human B1), anti-CD62L-FITC (mouse MEL-14 and human SK11), anti-CD45RO-APC (human UCHL1), anti-CCR6-PE (human 11A9), anti-CD45-PerCp (mouse 30-F11). Human or mouse anti-IFNγ (mouse XMG1.2 and human 4S.B3), anti-TNFα (mouse MP6-XT22 and human MAB11), anti-IL-17A (mouse eBio17B7 and human eBio64DEC17), anti-IL-22 (mouse 1H8PWSR and human 22URTI), and anti-Foxp3 (mouse FJK-16s and human 36A/E7), all PE or APC conjugated, were purchased from eBioscience (San Diego, CA). Human and mouse APC conjugated CD1d tetramers pre-loaded with alpha-GalCer and negative controls were obtained from ProImmune. […] Cells were stained with fluorescence-labeled antibodies for surface marker, then fixed/permeabilized (eBioscience) and stained with antibodies for intracellular cytokines. […] The data were acquired on a FACS Calibur (BD Bioscience) and analyzed using FlowJo software (Tree Star, San Carlos, CA). […]

[2] = system: human CD4+ CD45RO+ CCR6+ T cells; test: Human memory CCR6+ T cells in vitro activation
Description: The following antibodies (anti-mouse or anti-human) were purchased from BD Biosciences (San Diego, CA) or eBioscience (San Diego, CA): anti-CD3-FITC (mouse 17A2 and human SK7), anti-CD4-allophycocyanin (APC), anti-CD4-PerCp, anti-CD4-FITC, anti-CD4-PE (mouse GK1.5 and human SK3), anti-CD44-PerCp (mouse IM7), anti-γδ TCR-FITC, anti-γδ TCR-PE (mouse GL3 and human B1), anti-CD62L-FITC (mouse MEL-14 and human SK11), anti-CD45RO-APC (human UCHL1), anti-CCR6-PE (human 11A9), anti-CD45-PerCp (mouse 30-F11). Human or mouse anti-IFNγ (mouse XMG1.2 and human 4S.B3), anti-TNFα (mouse MP6-XT22 and human MAB11), anti-IL-17A (mouse eBio17B7 and human eBio64DEC17), anti-IL-22 (mouse 1H8PWSR and human 22URTI), and anti-Foxp3 (mouse FJK-16s and human 36A/E7), all PE or APC conjugated, were purchased from eBioscience (San Diego, CA). Human and mouse APC conjugated CD1d tetramers pre-loaded with alpha-GalCer and negative controls were obtained from ProImmune. For intracellular staining cells were stimulated for 4 hours at 37 °C with PMA and ionomycin (0.5 μg/ml each) in the presence of brefeldin A and monensin or with leukocyte activation cocktail (BD Bioscience, San Diego, CA). Cells were stained with fluorescence-labeled antibodies for surface marker, then fixed/permeabilized (eBioscience) and stained with antibodies for intracellular cytokines. For Foxp3 staining cells were fixed/permeabilized using transcription factor buffer set (eBioscience). The data were acquired on a FACS Calibur (BD Bioscience) and analyzed using FlowJo software (Tree Star, San Carlos, CA).
Human blood samples from healthy donors were provided by the Scripps Research Institute, La Jolla following Institutional Review Board approved protocol. Total CD4^+ T cells were isolated from the peripheral blood mononuclear cells (PBMCs) using a CD4^+ T cell Isolation Kit II (Miltenyl Biotec, Auburn, CA), following the manufacturer’s instructions. CCR6^+ cells were isolated from CD4^+ T cells using phycoerythrin (PE) conjugated anti-CCR6 antibody followed by anti-PE microbeads. Isolated CCR6^+ T cells were resuspended in culture medium and added to a 96-well plate which was pre-coated with 1 μg/ml anti-CD3 (BD Bioscience) at 1 × 10^5 cells per well. […] Cells were cultured at 37 °C and 5% CO2 for 6 days. Supernatants were assayed for accumulated cytokines using MSD multi-spot assay (Meso Scale Discovery, Rockville, MD) or R&D ELISA kit, and cells were used for intracellular staining.

mouse iNKT cells = test: Mouse NKT cell in vitro activation; details: IL-1β/IL-23 plus anti-IFNγ, 4 days, 1 μM
Description: The following antibodies (anti-mouse or anti-human) were purchased from BD Biosciences (San Diego, CA) or eBioscience (San Diego, CA): anti-CD3-FITC (mouse 17A2 and human SK7), anti-CD4-allophycocyanin (APC), anti-CD4-PerCp, anti-CD4-FITC, anti-CD4-PE (mouse GK1.5 and human SK3), anti-CD44-PerCp (mouse IM7), anti-γδ TCR-FITC, anti-γδ TCR-PE (mouse GL3 and human B1), anti-CD62L-FITC (mouse MEL-14 and human SK11), anti-CD45RO-APC (human UCHL1), anti-CCR6-PE (human 11A9), anti-CD45-PerCp (mouse 30-F11). […] Cells were stained with fluorescence-labeled antibodies for surface marker, then fixed/permeabilized (eBioscience) and stained with antibodies for intracellular cytokines. […] The data were acquired on a FACS Calibur (BD Bioscience) and analyzed using FlowJo software (Tree Star, San Carlos, CA).
Single cell suspension was generated from mouse mesenteric lymph-nodes. […] NKT cells were identified among total live cells using anti-CD3 and mouse conjugated CD1d-tetramer pre-loaded with alpha-GalCer, and cytokine-producing NKT cells were analyzed through intracellular staining. […]

[3] = system: iNKT cells from human PBMCs; test: Human NKT cell in vitro activation; details: IL-1β/IL-23, 6 days, 1 μM

COc1nc2ccc([C@@](O)(c3ccc(C)nc3C)c3cnnn3C)cc2c(Cl)c1Cc1ccc(C(F)(F)F)cc1 [JNJ-54271074]
IL-17A+ and IL-17A+ IL-22+ CD4+ T cells [1]: significantly suppressed
IL-22 single positive cells [1]: no effect
IFNγ production ([2]; 1 μM): slightly increasing
IL-22, TNFα and GM-CSF production ([2]; 1 μM): trend of decreasing
increase of IL-10 production over the control ([2]; 1 μM): 49%
number of IL-17A-producing cells (single- and double-positive) ([2]; 1 μM, flow cytometry): significantly decreased
inhibition at 1 µM ([2]; Homo sapiens, T-cell, vs DMSO control, non-polarizing activation, read-out: inhibition of IL-17A production): 77%
IL-17A production by mouse iNKT cells (mouse iNKT cells): suppressed
IL-17A production by iNKT cells from human PBMCs [3]: suppressed
